Legend:
Format in all cases: cell-based
A375 = experiment: CellTiter-Glo cell viability, A375; settings: A375 cells, 72 h with compound
Method: (§1) Antitumor activity against a panel of cancer cell lines Antitumor activity of the compounds was assessed by using the CellTiter-Glow® Luminescent Cell Viability assay (Promega #G7572) according to the manufacturer's instructions. The compounds were tested at 5 or 6 concentrations in 1:2 dilution increments (highest concentration 10 µM) in triplicate well conditions.
(§2) Tumor cells were grown at 37° C. in a humidified atmosphere with 5% CO2 in RPMI 1640 or DMEM medium, supplemented with 10% (v/v) fetal calf serum and 50 μg/ml gentamicin for up to 20 passages, and were passaged once or twice weekly. Cells were harvested using TrypLE or PBS buffer containing 1 mM EDTA, and the percentage of viable cells is determined using a cell counter.
(§3) Cells were harvested from exponential phase cultures, counted and plated in 96 well flat-bottom microtiter plates at a cell density depending on the cell line's growth rate (4,000-20,000 cells/well depending on the cell line's growth rate) in RPMI 1640 or DMEM medium supplemented with 10% (v/v) fetal calf serum and 50 μg/ml gentamicin (140 μl/well). Cultures were incubated at 37° C. and 5% CO2 in a humidified atmosphere. After 24 h, 10 μl of test compounds or control medium are added, and left on the cells for another 72 h. Compounds were serially diluted in DMSO, transferred in cell culture medium, and added to the assay plates. The DMSO concentration was kept constant at <0.2% v/v across the assay plate. Viability of cells was quantified by the CellTiter-Glow® Luminescent Cell Viability assay (Promega #G7572). Luminescence was measured with the microplate luminometer (En Vision Perkin Elmer).
(§4) Sigmoidal concentration-response curves were fitted to the data points (test-versus-control, T/C values) obtained for each tumor model using Graph Pad prism 5.02 software. IC50 values are reported as absolute IC50 values, being the concentration of test compound at the intersection of the concentration-response curves with T/C=50%.

MCF-7 = experiment: CellTiter-Glo cell viability, MCF-7; settings: Homo sapiens, MCF7; MCF-7 cells, 72 h with compound
Method: as §1, §2, §3, §4

Raji = experiment: CellTiter-Glo cell viability, Raji; settings: Homo sapiens; Raji cells, 72 h with compound
Method: as §1, §2
as §3, with “After 24 h, 10 μl of test compounds or control medium are added, and left on the cells for another 72 h. Compounds were serially diluted in DMSO, transferred in cell culture medium, and added to the assay plates. The DMSO concentration was kept constant at <0.2% v/v across the assay plate.” left out, “Elmer). […]” for “Elmer).”

SK-Mel-5 = experiment: CellTiter-Glo cell viability, SK-Mel-5; settings: SK-Mel-5 cells, 72 h with compound
Method: as §1, §2, §3, §4

A-673 = experiment: CellTiter-Glo cell viability, A-673; settings: Homo sapiens, A673; A-673 cells, 72 h with compound
Method: as §1, §2, §3, §4

HCC-15 = experiment: CellTiter-Glo cell viability, HCC-15; settings: HCC-15 cells, 72 h with compound
Method: as §1, §2, §3, §4

U87MG = experiment: CellTiter-Glo cell viability, U87MG; settings: Homo sapiens, U-87 MG; U87MG cells, 72 h with compound
Method: as §1, §2, §3, §4

NCI-H1299 = experiment: CellTiter-Glo cell viability, NCI-H1299; settings: Homo sapiens, NCI-H1299; H1299 cells, 72 h with compound
Method: as §1, §2, §3, §4

MIA-PaCa-2 = experiment: CellTiter-Glo cell viability, MIA-PaCa-2; settings: MIA-PaCa-2 cells, 72 h with compound
Method: as §1, §2, §3, §4

H69 = experiment: CellTiter-Glo cell viability, H69; settings: H69 cells, 72 h with compound
Method: as §1, §2, §3, §4

H460 = experiment: CellTiter-Glo cell viability, H460; settings: H460 cells, 72 h with compound
Method: as §1, §2
as §3, with “After 24 h, 10 μl of test compounds or control medium are added, and left on the cells for another 72 h. Compounds were serially diluted in DMSO, transferred in cell culture medium, and added to the assay plates. The DMSO concentration was kept constant at <0.2% v/v across the assay plate.” left out, “Elmer). […]” for “Elmer).”

MDA-MB-468 = experiment: CellTiter-Glo cell viability, MDA-MB-468; settings: MDA-MB-468 cells, 72 h with compound
Method: as §1, §2
as §3, with “After 24 h, 10 μl of test compounds or control medium are added, and left on the cells for another 72 h. Compounds were serially diluted in DMSO, transferred in cell culture medium, and added to the assay plates. The DMSO concentration was kept constant at <0.2% v/v across the assay plate.” left out, “Elmer). […]” for “Elmer).”

SK-N-SH = experiment: CellTiter-Glo cell viability, SK-N-SH; settings: SK-N-SH cells, 72 h with compound
Method: as §1, §2, §3, §4

A2058 = experiment: CellTiter-Glo cell viability, A2058; settings: A2058 cells, 72 h with compound
Method: as §1, §2, §3, §4

LoVo = experiment: CellTiter-Glo cell viability, LoVo; settings: LoVo cells, 72 h with compound
Method: as §1, §2
as §3, with “After 24 h, 10 μl of test compounds or control medium are added, and left on the cells for another 72 h. Compounds were serially diluted in DMSO, transferred in cell culture medium, and added to the assay plates. The DMSO concentration was kept constant at <0.2% v/v across the assay plate.” left out, “Elmer). […]” for “Elmer).”

Kelly = experiment: CellTiter-Glo cell viability, Kelly; settings: Kelly cells, 72 h with compound
Method: as §1, §2, §3, §4

22Rv1 = experiment: CellTiter-Glo cell viability, 22Rv1; settings: 22Rv1 cells, 72 h with compound
Method: as §1, §2, §3, §4

BxPC-3 = experiment: CellTiter-Glo cell viability, BxPC-3; settings: BxPC-3 cells, 72 h with compound
Method: as §1, §2, §3, §4

LNCaP = experiment: CellTiter-Glo cell viability, LNCaP; settings: LNCaP cells, 72 h with compound
Method: as §1, §2
as §3, with “After 24 h, 10 μl of test compounds or control medium are added, and left on the cells for another 72 h. Compounds were serially diluted in DMSO, transferred in cell culture medium, and added to the assay plates. The DMSO concentration was kept constant at <0.2% v/v across the assay plate.” left out, “Elmer). […]” for “Elmer).”

NFKB = experiment: SelectScreen CellSensor pathway inhibition, NFKB; settings: NFKB-bla Jurkat, stimulus TNF-alpha
Method: Inhibition of various cellular pathways known to be involved in malignancy was tested using the SelectScreen Cell-based Pathway Profiling GeneBLAzer™ cell signaling pathway specific CellSensor™ cell lines ((Thermo Fisher). The assay is based on a beta-lactamase reporter activity which is modulated and can be measured quantitatively and selectively with the LiveBLAzer™-FRET B/G Loading Substrate. SelectScreen Cell-Based Pathway Profiling Service uses XLfit from IDBS. The dose response curve is curve fit to model number 205 (sigmoidal dose-response model). Custom logic was built by Thermo Fisher for the data analysis tool to address the different compound characteristics that can be observed with functional assays.
NFKB—NFKB-bla Jurkat—Inhibitor Screen, Activated by TNF-Alpha
NFKB-bla Jurkat cells are thawed and resuspended in Assay Media (DMEM, 10% dialyzed FBS, 25 mM HEPES pH 7.3, 0.1 mM NEAA, 100 U/mL/100 μg/mL Pen/Strep) to a concentration of 625,000 cells/mL. […] 4 μL of 10×control activator TNF-alpha at the pre-determined EC80 concentration is added to wells containing the control inhibitor or compounds.
The plate is incubated for 5 hours at 37° C./5% CO2 in a humidified incubator. […] The plate is read on a fluorescence plate reader.

Row | IC50 (A375; Homo sapiens, A-375) | IC50 (HCC-15; HCC15) | IC50 (NCI-H1299) | IC50 (MIA-PaCa-2; Homo sapiens) | IC50 (A375) | IC50 (H460) | IC50 (MDA-MB-468) | IC50 (SK-N-SH) | IC50 (SK-Mel-5) | IC50 (22Rv1) | IC50 (HCC-15) | IC50 (BxPC-3) | IC50 (MIA-PaCa-2) | IC50 (LNCaP) | SMILES | IC50 (H69) | IC50 (A2058) | IC50 (Kelly) | also measured
1 | 1.5 µM | 3.7 µM | 1.4 µM | 1.2 µM | – | – | – | – | – | – | – | – | – | – | COc1c(O)ccc2c(=O)c(-c3ccc(CCCC[P+](c4ccccc4)(c4ccccc4)c4ccccc4)cc3)coc12 [SND530, (4-(4-(7-Hydroxy-8-methoxy-4-oxo-4H-chromen-3-yl)phenyl)butyl)triphenylphosphonium bromide] | – | – | – | IC50 (MCF-7): 1 µM; IC50 (Raji): 0.14 µM; IC50 (SK-Mel-5; Homo sapiens): 1.1 µM; IC50 (A-673): 0.5 µM; IC50 (U87MG): 1.9 µM
2 | – | – | – | – | 0.76 µM | 1.78 µM | 0.51 µM | 2.75 µM | 0.87 µM | 0.8 µM | 1.47 µM | 1.46 µM | 0.43 µM | 0.69 µM | COc1ccc2c(=O)c(-c3cccc(CC[P+](c4ccccc4)(c4ccccc4)c4ccccc4)c3)coc2c1OC [SND542] | 0.21 µM | 0.69 µM | 1.71 µM | IC50 (LoVo): 4.83 µM
3 | – | – | – | – | 1.51 µM | 2 µM | 0.56 µM | 3.87 µM | 0.97 µM | 0.92 µM | 1.34 µM | 1.81 µM | 0.63 µM | 0.68 µM | COc1ccc2c(=O)c(-c3cccc(C[P+](c4ccccc4)(c4ccccc4)c4ccccc4)c3)coc2c1OC [SND543] | 0.97 µM | 0.98 µM | 1.44 µM | –
4 | 0.92 µM | 1.3 µM | 1.3 µM | 4.3 µM | – | – | – | – | – | – | – | – | – | – | COc1ccc2c(=O)c(-c3ccc(CC[P+](c4ccccc4)(c4ccccc4)c4ccccc4)cc3)coc2c1OC [SND550] | – | – | – | IC50 (H69; Homo sapiens, NCI-H69): 0.68 µM; IC50 (SK-N-SH; Homo sapiens): 3.69 µM; IC50 (22Rv1; Homo sapiens): 0.75 µM
5 | – | – | – | – | – | – | – | – | – | – | – | – | – | – | CC1=C(CO)C(=O)O[C@@H]([C@@H](C)[C@H]2CC[C@H]3[C@@H]4C[C@H]5O[C@]56[C@@H](O)C=CC(=O)[C@]6(C)[C@H]4CC[C@]23C)C1 [Withaferin A, reference compound] | – | – | – | IC50 (NFKB): 0.24 µM
